Reference: PubChem BioAssay (NCI)
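48-hour exposure; five concentrations; linearly interpolated endpoints. GI50 = concentration required for 50% inhibition of growth. Definition used: TGI = concentration required for complete inhibition of growth.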

Assays:
Assay in all cases: NCI tumour cell line growth inhibition, 48 h
[1] = system: 786-0 renal
[2] = system: A498 renal
[3] = system: A549 NSCLC
[4] = system: ACHN renal
[5] = system: BT-549 breast
[6] = system: CAKI-1 renal
[7] = system: CCRF-CEM leukemia
[8] = system: COLO 205 colon
[9] = system: DU-145 prostate
[10] = system: EKVX NSCLC
[11] = system: HCC-2998 colon
[12] = system: HCT-116 colon
[13] = system: HCT-15 colon
[14] = system: HL-60(TB) leukemia
[15] = system: HOP-62 NSCLC
[16] = system: HOP-92 NSCLC
[17] = system: HS 578T breast
[18] = system: HT29 colon
[19] = system: IGROV1 ovarian
[20] = system: K-562 leukemia
[21] = system: KM12 colon
[22] = system: LOX IMVI melanoma
[23] = system: M14 melanoma
[24] = system: MALME-3M melanoma
[25] = system: MCF7 breast
[26] = system: MDA-MB-231 breast
[27] = system: MDA-MB-435
[28] = system: MDA-MB-468 breast
[29] = system: MOLT-4 leukemia
[30] = system: NCI-H226 lung
[31] = system: NCI-H23 lung
[32] = system: NCI-H460 lung
[33] = system: NCI-H522 lung
[34] = system: NCI/ADR-RES ovarian
[35] = system: OVCAR-3 ovarian
[36] = system: OVCAR-4 ovarian
[37] = system: OVCAR-5 ovarian
[38] = system: OVCAR-8 ovarian
[39] = system: PC-3 prostate
[40] = system: RPMI-8226 leukemia
[41] = system: RXF 393 renal
[42] = system: SF-268 CNS
[43] = system: SF-295 CNS
[44] = system: SF-539 CNS
[45] = system: SK-MEL-2 melanoma
[46] = system: SK-MEL-28 melanoma
[47] = system: SK-MEL-5 melanoma
[48] = system: SK-OV-3 ovarian
[49] = system: SN12C renal
[50] = system: SNB-19 CNS
[51] = system: SNB-75 CNS
[52] = system: SR leukemia
[53] = system: SW-620 colon
[54] = system: T-47D breast
[55] = system: TK-10 renal
[56] = system: U251 CNS
[57] = system: UACC-257 melanoma
[58] = system: UACC-62 melanoma
[59] = system: UO-31 renal

Compound `COc1ccc(-c2nc(S(=O)(=O)c3ccc(C)cc3)c(S(=O)(=O)CC(=O)N(C)Cc3ccccc3)o2)cc1` has a GI50 [1] of 8.89 µM, a TGI [1] of 23 µM and a GI50 [2] of 13.5 µM. For the same compound, the TGI [2] was 26.8 µM, the GI50 [3] was 14.6 µM and the TGI [3] was 33.6 µM. For the same compound, the GI50 [4] was 10.8 µM, the TGI [4] was 22.7 µM and the GI50 [5] was 12.3 µM. The TGI [5] was 26 µM, the GI50 [6] was 5.76 µM and the TGI [6] was 18.6 µM. The GI50 [7] was 3.5 µM, the TGI [7] was over 100 µM and the GI50 [8] was 12.2 µM. For the same compound, the TGI [8] was 41.7 µM, the GI50 [9] was 10.2 µM and the TGI [9] was 21.8 µM. The GI50 [10] was 11.7 µM, the TGI [10] was 25.2 µM and the GI50 [11] was 13.3 µM. For the same compound, the TGI [11] was 26.1 µM, the GI50 [12] was 5.02 µM and the TGI [12] was 19.6 µM. It also gave a GI50 [13] of 6.17 µM, a TGI [13] of 20.8 µM and a GI50 [14] of 16.3 µM. It also gave a TGI [14] of over 100 µM, a GI50 [15] of 16 µM and a TGI [15] of 32.5 µM. It also gave a GI50 [16] of 14 µM, a TGI [16] of 39.2 µM and a GI50 [17] of 4.85 µM. It also gave a TGI [17] of 33.5 µM, a GI50 [18] of 9.39 µM and a TGI [18] of 30.5 µM. It also gave a GI50 [19] of 11.1 µM, a TGI [19] of 23.5 µM and a GI50 [20] of 4.72 µM. It also gave a TGI [20] of over 100 µM, a GI50 [21] of 15.8 µM and a TGI [21] of 32.3 µM. For the same compound, the GI50 [22] was 2.79 µM, the TGI [22] was 10.2 µM and the GI50 [23] was 12.4 µM. It also gave a TGI [23] of 30.8 µM, a GI50 [24] of 14.8 µM and a TGI [24] of 29.6 µM. For the same compound, the GI50 [25] was 3.89 µM, the TGI [25] was 16.8 µM and the GI50 [26] was 9.27 µM. It also gave a TGI [26] of 21.6 µM, a GI50 [27] of 7.32 µM and a TGI [27] of 31.1 µM. The GI50 [28] was 2.41 µM, the TGI [28] was 8 µM and the GI50 [29] was 4.73 µM. The TGI [29] was over 100 µM, the GI50 [30] was 14.8 µM and the TGI [30] was 39.6 µM. For the same compound, the GI50 [31] was 12.5 µM, the TGI [31] was 25.7 µM and the GI50 [32] was 8.2 µM. It also gave a TGI [32] of 23.3 µM, a GI50 [33] of 2.19 µM and a TGI [33] of 6.94 µM. It also gave a GI50 [34] of 15.2 µM, a TGI [34] of 45.2 µM and a GI50 [35] of 4.25 µM. The TGI [35] was 16.2 µM, the GI50 [36] was 14.2 µM and the TGI [36] was 36.7 µM. For the same compound, the GI50 [37] was 12.8 µM, the TGI [37] was 25.5 µM and the GI50 [38] was 13.3 µM. For the same compound, the TGI [38] was 28.9 µM, the GI50 [39] was 12.1 µM and the TGI [39] was 44.9 µM. It also gave a GI50 [40] of 4.45 µM, a TGI [40] of over 100 µM and a GI50 [41] of 5.05 µM. It also gave a TGI [41] of 16.9 µM, a GI50 [42] of 12.1 µM and a TGI [42] of 29.7 µM. It also gave a GI50 [43] of 12.7 µM, a TGI [43] of 25.5 µM and a GI50 [44] of 10.7 µM. For the same compound, the TGI [44] was 22.5 µM, the GI50 [45] was 13.8 µM and the TGI [45] was 27.4 µM. It also gave a GI50 [46] of 14.3 µM, a TGI [46] of 27.3 µM and a GI50 [47] of 14.3 µM. For the same compound, the TGI [47] was 27.7 µM, the GI50 [48] was 30.5 µM and the TGI [48] was over 100 µM. It also gave a GI50 [49] of 10.5 µM, a TGI [49] of 22.3 µM and a GI50 [50] of 14.4 µM. The TGI [50] was 27.5 µM, the GI50 [51] was 4.82 µM and the TGI [51] was 18.7 µM. For the same compound, the GI50 [52] was 3.27 µM, the TGI [52] was over 100 µM and the GI50 [53] was 4.25 µM. For the same compound, the TGI [53] was 17.5 µM, the GI50 [54] was 6.28 µM and the TGI [54] was 25.2 µM. It also gave a GI50 [55] of 13.2 µM, a TGI [55] of 26.5 µM and a GI50 [56] of 15.4 µM. It also gave a TGI [56] of 29.1 µM, a GI50 [57] of 13.1 µM and a TGI [57] of 26.3 µM. For the same compound, the GI50 [58] was 11.7 µM, the TGI [58] was 23.9 µM and the GI50 [59] was 10.3 µM. It also gave a TGI [59] of 22 µM.
